The values that follow come from patent publication US11492335B2, “Aryl or heteroaryl triazolone derivatives or salts thereof, or pharmaceutical compositions comprising the same” (YUHAN CORPORATION, priority 2018, dated 2022).

One may read the IC50 as the point on the concentration scale where inhibition reaches its midpoint.

Test [1] concerns the target T1, recombinant human VAP-1 (Homo sapiens, UniProt Q16853).
T1 construct: purchased R&D systems
T1 sequence (Q16853 1-763): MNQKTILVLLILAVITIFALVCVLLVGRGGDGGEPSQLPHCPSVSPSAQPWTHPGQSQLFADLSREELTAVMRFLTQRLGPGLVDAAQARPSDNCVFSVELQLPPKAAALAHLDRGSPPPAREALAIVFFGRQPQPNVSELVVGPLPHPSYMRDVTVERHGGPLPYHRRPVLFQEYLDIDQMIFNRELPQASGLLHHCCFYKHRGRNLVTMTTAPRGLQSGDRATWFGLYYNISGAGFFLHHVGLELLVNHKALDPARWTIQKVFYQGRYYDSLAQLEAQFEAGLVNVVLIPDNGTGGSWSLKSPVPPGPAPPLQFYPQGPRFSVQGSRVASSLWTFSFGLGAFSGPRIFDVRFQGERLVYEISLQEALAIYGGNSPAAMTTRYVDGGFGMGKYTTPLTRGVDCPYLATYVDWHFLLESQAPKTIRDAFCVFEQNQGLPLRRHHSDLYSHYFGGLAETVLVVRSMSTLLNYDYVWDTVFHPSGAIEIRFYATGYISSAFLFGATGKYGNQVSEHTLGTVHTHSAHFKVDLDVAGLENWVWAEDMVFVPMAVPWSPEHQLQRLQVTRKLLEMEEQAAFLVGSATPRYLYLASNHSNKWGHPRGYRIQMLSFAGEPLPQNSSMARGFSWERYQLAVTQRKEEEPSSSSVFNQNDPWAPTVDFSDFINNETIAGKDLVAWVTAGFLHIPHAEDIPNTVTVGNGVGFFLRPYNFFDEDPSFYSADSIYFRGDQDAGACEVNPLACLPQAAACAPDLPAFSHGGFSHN
Briefly: Activity on recombinant human VAP-1, Amplex Red HRP-coupled hydrogen peroxide assay, benzylamine substrate. Type of test: biochemical. The note with it: recombinant human VAP-1, benzylamine substrate, read-out: Inhibitory Activity (IC50, nM) human VAP-1. As for the experimental part: (§1) The compounds according to the present technology were evaluated in terms of activity on recombinant human VAP-1 (R&D systems) by measuring the level of hydrogen peroxide in horseradish peroxidase (HRP)-coupled reaction using Amplex Red Hydrogen Peroxide Assay Kit (Molecular Probes, Invitrogen, USA). The experiment was carried out at room temperature using benzylamine as a substrate. In the HRP-coupled reaction, hydrogen peroxide oxidation of 10-acetyl-3,7-dihydroxyphenoxazine (Amplex Red reagent) produces resorufin, which is a highly fluorescent compound. Briefly, the test compound was dissolved in dimethyl sulfoxide (DMSO) at a concentration of 20 mM. The dose-response assessment was made by 1:3 serial dilution in DMSO, thereby creating an 8 point curve. The concentration of the upper part was controlled according to the efficacy of the compounds, followed by dilution with a reaction buffer solution to obtain a final DMSO concentration less than 1%. To each well of a 96 black well plate, human VAP-1 purified in 50 mM sodium phosphate buffer solution (pH7.4) was added. The test compounds dissolved in DMSO were incubated with the human VAP-1 enzymes at 37° C. for 30 minutes. After 30-minute incubation, each well is added with a reaction mixture containing 200 uM Amplex Red reagent prepared from 50 mM sodium phosphate buffer solution (pH 7.4), 1 mM benzylamine, and 1 U/mL HRP. Fluorescence intensity was measured at several time points during 1-2 hours using a microplate reader (Flexstation3, Molecular Devices) under the wavelength condition exciting at 544 nm and reading the emission at 590 nm. The inhibitory effect of the compounds was measured as a decrease (%) in the signal rate as compared to the control group without any inhibitor (only diluted DMSO). Data was fixed to a logistic model with four variables and IC50 value was calculated using GraphPad Prism program.

For test [2], the target named is T2, recombinant human DAO (diamine oxidase) (Homo sapiens, UniProt P19801).
T2 construct: purchased R&D systems
T2 sequence (P19801 20-751): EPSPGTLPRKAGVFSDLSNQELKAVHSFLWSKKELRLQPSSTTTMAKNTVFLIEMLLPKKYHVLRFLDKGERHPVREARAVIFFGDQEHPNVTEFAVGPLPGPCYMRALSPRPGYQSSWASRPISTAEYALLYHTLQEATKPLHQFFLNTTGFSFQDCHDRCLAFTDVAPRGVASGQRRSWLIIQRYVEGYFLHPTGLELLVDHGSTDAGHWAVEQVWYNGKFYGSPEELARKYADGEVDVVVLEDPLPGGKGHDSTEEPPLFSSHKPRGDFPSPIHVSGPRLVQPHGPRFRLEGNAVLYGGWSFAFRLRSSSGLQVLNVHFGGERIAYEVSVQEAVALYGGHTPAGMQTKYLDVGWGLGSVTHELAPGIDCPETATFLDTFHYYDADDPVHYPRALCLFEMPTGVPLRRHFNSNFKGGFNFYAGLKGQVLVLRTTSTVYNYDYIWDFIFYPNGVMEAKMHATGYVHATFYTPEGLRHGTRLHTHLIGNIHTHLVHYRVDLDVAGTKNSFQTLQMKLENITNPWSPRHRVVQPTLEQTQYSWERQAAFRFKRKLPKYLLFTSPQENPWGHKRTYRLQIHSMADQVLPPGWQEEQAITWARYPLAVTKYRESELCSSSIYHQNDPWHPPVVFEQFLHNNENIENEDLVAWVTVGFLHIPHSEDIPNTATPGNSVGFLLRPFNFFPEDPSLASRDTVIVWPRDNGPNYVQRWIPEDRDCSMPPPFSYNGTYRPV
Briefly: Activity on recombinant human DAO, Amplex Red method, 1 mM putrescine substrate. It is filed as biochemical. The note with it: recombinant human DAO, 1 mM putrescine; * = between 10 and 100 nM, ** = between 300 and 1000 nM; read-out: Inhibitory Activity (IC50, nM) DAO. As for the experimental part:
as §1
In addition, the compounds according to the present technology were evaluated in terms of activity on a recombinant human MAO-A (monoamine oxidase-A, Sigma-Aldrich) and a recombinant human MAO-B (monoamine oxidase-B, Sigma-Aldrich) by using as substrates, 0.5 mM tyramine and 1 mM benzylamine, respectively, with a method similar to the activity evaluation method for recombinant human VAP-1. The compounds according to the present technology were also evaluated in terms of activity on a recombinant human DAO (diamine oxidase, R&D systems) by using as a substrate 1 mM putrescine with a method similar to the activity evaluation method for recombinant human VAP-1.

Where a name gives a salt, the structure may show the parent alone. Read-outs that look alike come from different tables or passages of the source.

Take `Cc1cc(-c2cccc(-c3nc[nH]n3)c2)ncc1-n1cnn(C/C(=C/F)CN)c1=O` [Example 122, 2-[(2E)-2-(aminomethyl)-3-fluoroprop-2-en-1-yl]-4-{4-methyl-6-[3-(1H-1,2,4-triazol-3-yl)phenyl]pyridin-3-yl}-2,4-dihydro-3H-1,2,4-triazol-3-one]: the IC50 in test [1] (30 min preincubation at 37° C.) was 0.77 nM; in test [2], under 100 nM.

Consider `CC(=O)Nc1nc2cc(-c3cc(C)c(-n4cnn(C/C(=C/F)CN)c4=O)cn3)ccc2s1` [Example 128, N-[5-(5-{1-[(2E)-2-(aminomethyl)-3-fluoroprop-2-en-1-yl]-5-oxo-1,5-dihydro-4H-1,2,4-triazol-4-yl}-4-methylpyridin-2-yl)-1,3-benzothiazol-2-yl]acetamide], for which the values for the IC50 in test [1] (30 min preincubation at 37° C.) and in test [2] were 0.82 nM and under 100 nM, respectively.

`CC(=O)Nc1cc(-c2cccc(-n3cnn(C/C(=C/F)CN)c3=O)c2C)ccn1` [Example 109, N-[4-(3-{1-[(2E)-2-(aminomethyl)-3-fluoroprop-2-en-1-yl]-5-oxo-1,5-dihydro-4H-1,2,4-triazol-4-yl}-2-methylphenyl)pyridin-2-yl]acetamide]: the IC50 in test [1] (30 min preincubation at 37° C.) was 8.1 nM; in test [2], 740 nM. The corresponding values for `COc1cc(N2CCOCC2)c(Br)cc1-n1cnn(C/C(=C/F)CN)c1=O` [Example 47, 2-[(2E)-2-(aminomethyl)-3-fluoroprop-2-en-1-yl]-4-[5-bromo-2-methoxy-4-(morpholin-4-yl)phenyl]-2,4-dihydro-3H-1,2,4-triazol-3-one hydrochloride] are 2.8 nM and 1200 nM.

For `Cc1cc(-c2ccc3nonc3c2)ncc1-n1cnn(C/C(=C/F)CN)c1=O` [Example 125, 2-[(2E)-2-(aminomethyl)-3-fluoroprop-2-en-1-yl]-4-[6-(2,1,3-benzooxadiazol-5-yl)-4-methylpyridin-3-yl]-2,4-dihydro-3H-1,2,4-triazol-3-one], the figures for the IC50 in test [1] (30 min preincubation at 37° C.) and in test [2] were 1.2 nM and under 100 nM, respectively.

Take `NC/C(=C\F)Cn1ncn(-c2cccc(-c3cncc4ccccc34)c2)c1=O` [Example 104, 2-[(2E)-2-(aminomethyl)-3-fluoroprop-2-en-1-yl]-4-[3-(isoquinolin-4-yl)phenyl]-2,4-dihydro-3H-1,2,4-triazol-3-one hydrochloride]: the IC50 in test [1] (30 min preincubation at 37° C.) was determined as 3 nM; in test [2], 54 nM.

Consider `NC/C(=C/F)Cn1ncn(-c2ccc(Br)cc2)c1=O` [Example 1, 2-[(2Z)-2-(aminomethyl)-3-fluoroprop-2-en-1-yl]-4-(4-bromophenyl)-2,4-dihydro-3H-1,2,4-triazol-3-one], for which the IC50 in test [1] (30 min preincubation at 37° C.) came to 17 nM. Regarding `Cc1cc(-c2cccc(-c3nnn[nH]3)c2)cnc1-n1cnn(C/C(=C/F)CN)c1=O` [Example 144, 2-[(2E)-2-(aminomethyl)-3-fluoroprop-2-en-1-yl]-4-{3-methyl-5-[3-(1H-tetrazol-5-yl)phenyl]pyridin-2-yl}-2,4-dihydro-3H-1,2,4-triazol-3-one], the half-inhibitory concentration (IC50) came to 3.3 nM in test [1] (30 min preincubation at 37° C.) and 1400 nM in test [2]. Consider `Cc1cc(-n2cnn(C/C(=C\F)CN)c2=O)ncc1Br` [Example 33, 2-[(2Z)-2-(aminomethyl)-3-fluoroprop-2-en-1-yl]-4-(5-bromo-4-methylpyridin-2-yl)-2,4-dihydro-3H-1,2,4-triazol-3-one hydrochloride], for which the IC50 in test [1] (30 min preincubation at 37° C.) is 31 nM. Regarding `Cc1cc(Br)cnc1-n1cnn(C/C(=C\F)CN)c1=O` [Example 31, 2-[(2Z)-2-(aminomethyl)-3-fluoroprop-2-en-1-yl]-4-(5-bromo-3-methylpyridin-2-yl)-2,4-dihydro-3H-1,2,4-triazol-3-one hydrochloride], in test [1] (30 min preincubation at 37° C.), the IC50 was 47 nM. In the case of `NC/C(=C\F)Cn1ncn(-c2cccc(-c3ccc(-c4noc(=O)[nH]4)cc3)n2)c1=O` [Example 182, 3-[4-(6-{1-[(2E)-2-(aminomethyl)-3-fluoroprop-2-en-1-yl]-5-oxo-1,5-dihydro-4H-1,2,4-triazol-4-yl}pyridin-2-yl)phenyl]-1,2,4-oxadiazol-5(4H)-one hydrochloride], the IC50 in test [1] worked out at 23 nM.
